Test results reported in patent US7132417B2, “2-phenyl-1-[4-(2-aminoethoxy)-benzyl]-indoles as estrogenic agents” (Wyeth, priority 1996, dated 2006).
Counter-ions that a name gives are not always drawn.

Legend:
[1] = target: T1, estrogen receptor (Homo sapiens, UniProt P03372); assay: In vitro estrogen receptor binding assay ([3H]-17β-estradiol competition); design: expressed in transfected cells; host or cells: CHO cells (100,000 g cytosol); settings: read-out: Receptor Binding IC50's
T1 sequence (P03372 1-595): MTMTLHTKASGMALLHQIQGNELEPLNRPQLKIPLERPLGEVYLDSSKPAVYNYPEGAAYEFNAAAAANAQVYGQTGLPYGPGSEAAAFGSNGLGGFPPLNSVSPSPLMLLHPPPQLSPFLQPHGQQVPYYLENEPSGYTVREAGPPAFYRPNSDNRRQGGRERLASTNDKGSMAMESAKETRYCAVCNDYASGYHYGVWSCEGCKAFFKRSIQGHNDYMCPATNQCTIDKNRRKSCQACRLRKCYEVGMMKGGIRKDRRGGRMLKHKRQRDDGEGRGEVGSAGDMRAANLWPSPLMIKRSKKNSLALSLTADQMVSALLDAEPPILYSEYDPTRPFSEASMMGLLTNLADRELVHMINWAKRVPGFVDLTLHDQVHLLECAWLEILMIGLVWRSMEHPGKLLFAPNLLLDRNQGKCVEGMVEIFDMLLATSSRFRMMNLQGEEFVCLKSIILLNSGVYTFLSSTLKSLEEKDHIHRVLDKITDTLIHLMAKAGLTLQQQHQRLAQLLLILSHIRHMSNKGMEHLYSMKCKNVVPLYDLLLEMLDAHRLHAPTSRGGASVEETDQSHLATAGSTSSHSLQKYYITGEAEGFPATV
Description: In Vitro Estrogen Receptor Binding Assay
CHO cells overexpressing the estrogen receptor were grown in 150 mm^2 dishes in DMEM+10% dextran coated charcoal, stripped fetal bovine serum. The plates were washed twice with PBS and once with 10 mM Tris-HCl, pH 7.4, 1 mM EDTA. Cells were harvested by scraping the surface and then the cell suspension was placed on ice. Cells were disrupted with a hand-held motorized tissue grinder using two, 10-second bursts. […] The cytosol was then frozen and stored at −80° C. Protein concentration of the cytosol was estimated using the BCA assay with reference standard protein.
100 uG/100 uL of the receptor preparation was aliquoted per well. […] The plate was incubated at room temperature for 2.5 h. […] 200 uL of the supernatant solution was then removed for scintillation counting. Samples were counted to 2% or 10 minutes, whichever occurs first. […] Also, wells containing radioactivity but no cytosol were processed with charcoal to estimate unremovable DPM of [^3H]
Counts per minute (CPM) of radioactivity were automatically converted to disintegrated per minute (DPM) by the Beckman LS 7500 Scintillation Counter using a set of quenched standards to generate a H No. for each sample.
For the generation of IC50 curves, % binding is plotted vs compound. […] For a description of these methods, see Hulme, E. C., ed. […] Receptor-Ligand Interactions: A Practical Approach. IRL Press, New York. (see especially chapter 8).

[2] = target: T1, estrogen receptor; assay: 2X VIT ERE infection (luciferase) assay; assay type: cell-based; design: expressed in transfected cells; host or cells: Chinese Hamster Ovary cells (CHO), stably transfected; settings: for Infection Luciferase Activity 1 uM + 17β estradiol: 1 uM compound + 1 nM 17β-estradiol (test for estrogen antagonism); for Infection Luciferase Activity 1 uM: 1 uM compound, percentage of activity as compared to 17β-estradiol
Description: Method No. 18 2X VIT ERE Infection Assay Cell Maintenance and Treatment
Chinese Hamster Ovary cells (CHO) which had been stably transfected with the human estrogen receptor were maintained in DMEM+10% fetal bovine serum (FBS). 48 h prior to treatment the growth medium was replaced with DMEM lacking phenol red +10% dextran coated charcoal stripped FBS (treatment medium). Cells were plated at a density of 5000 cells/well in 96-well plates containing 200 µL of medium/well.
Reporter DNA (Promega plasmid pGL2 containing two tandem copies of the vitellogenin ERE in front of the minimal thymidine kinase promoter driving the luciferase gene) was combined with the B-galactosidase expression plasmid pCH110 (Pharmacia) and carrier DNA (pTZ18U) in the following ratio:
20 uL of this mixture was added to each well of cells and remained on the cells for 16 h. […] Each treatment condition was performed on 8 wells (n=8) which were incubated for 24 h prior to the luciferase assay.
After removing the PBS, 25 uL of Promega lysis buffer was added to each well and allowed to stand at room temperature for 15 min, followed by 15 min at −80° C. and 15 min at 37° C. 20 uL of lysate was transferred to an opaque 96 well plate for luciferase activity evaluation and the remaining lysate (5 uL) was used for the B-galactosidase activity evaluation (normalize transfection). The luciferan substrate (Promega) was added in 100 uL aliquots to each well automatically by the luminometer and the light produced (relative light units) was read 10 seconds after addition.
To the remaining 5 uL of lysate 45 uL of PBS was added. Then 50 uL of Promega B-galactosidase 2× assay buffer was added, mixed well and incubated at 37° C. for 1 hour. A plate containing a standard curve (0.1 to 1.5 milliunits in triplicate) was set up for each experimental run. The plates were analyzed on a Molecular Devices spectrophotometric plate reader at 410 nm. The optical densities for the unknown were converted to milliunits of activity by mathematical extrapolation from the standard curve.
The luciferase data was generated as relative light units (RLUs) accumulated during a 10 second measurement and automatically transferred to a JMP (SAS Inc) file where background RLUs were subtracted. The B-galactosidase values were automatically imported into the file and these values were divided into the RLUs to normalize the data. The mean and standard deviations were determined from a n=8 for each treatment. […] These techniques are described by Tzukerman, M. T., Esty, A., Santiso-Mere, D., Danielian, P., Parker, M. G., Stein, R. B., Pike, J. W. and McDonnel, D. P. (1994).

| Structure (SMILES) | IC50 [1] [µM] | Infection Luciferase Activity 1 uM + 17β estradiol [2] [%] | Infection Luciferase Activity 1 uM [2] [%] |
| --- | --- | --- | --- |
| Cc1c(-c2ccc(O)cc2)n(Cc2ccc(OCCCN3CCCCC3)cc2)c2ccc(O)cc12 [Example No. 166, 2-(4-Hydroxy-phenyl)-3-methyl-1-{4-[3-(piperidin-1-yl)-propoxy]-benzyl}-1H-indol-5-ol] | 0.099 |  |  |
| Cc1c(-c2ccc(O)cc2)n(Cc2ccc(OCCN3CCCCC3)cc2)c2ccccc12 [compound 86, 4-{3-Methyl-1-[4-(2-piperidin-1-yl-ethoxy)-benzyl]-1H-indol-2-yl}-phenol hydrochloride] |  | 2 | −5 |
| COc1ccc2c(c1)c(C)c(-c1ccc(O)cc1)n2Cc1ccc(OCCN2CCCCC2)cc1 [compound 88, 4-{5-Methoxy-3-methyl-1-{4-[2-(piperidin-1-yl)-ethoxy]-benzyl}-1H-indol-2-yl}-phenol] |  | 44 | 4 |
| COc1ccc(-c2c(C)c3cc(O)ccc3n2Cc2ccc(OCCN3CCCCC3)cc2)cc1 [compound 89, 2-(4-methoxy-phenyl)-3-methyl-1-{4-[2-(piperidin-1-yl)-ethoxy]-benzyl}-1H-indol-5-ol] |  | 18 | 16 |
| COc1ccc(-c2c(C)c3cc(OC)ccc3n2Cc2ccc(OCCN3CCCCC3)cc2)cc1 [compound 90, 5-Methoxy-2-(4-methoxy-phenyl)-3-methyl-1-[4-(2-piperidin-1-yl-ethoxy)-benzyl]-1H-indole] |  | 58 | 3 |
| CCOc1ccc(-c2c(C)c3cc(O)ccc3n2Cc2ccc(OCCN3CCCCC3)cc2)cc1 [compound 92, 2-(4-Ethoxy-phenyl)-3-methyl-1-[4-(2-piperidin-1-yl-ethoxy)-benzyl]-1H-indol-5-ol] |  | −2 | −4 |
| CCOc1ccc(-c2c(C)c3cc(O)ccc3n2Cc2ccc(OCCN3CCCCCC3)cc2)cc1 [compound 93, 1-[4-(2-Azepan-1-yl-ethoxy)-benzyl]-2-(4-ethoxy-phenyl)-3-methyl-1H-indol-5-ol] |  | −2 | −3 |
| Cc1c(-c2ccc(O)cc2)n(Cc2ccc(OCCN3CCCCC3)cc2)c2ccc(F)cc12 [compound 94, 4-{5-Fluoro-3-methyl-1-[4-(2-piperidin-1-yl-ethoxy)-benzyl]-1H-indol-2-yl}-phenol] |  | 15 | −5 |
| Cc1c(-c2ccc(O)cc2)n(Cc2ccc(OCCN3CCCC3)cc2)c2ccc(O)cc12 [compound 96, 2-(4-Hydroxy-phenyl)-3-methyl-1-[4-(2-pyrollidin-1-yl-ethoxy)-benzyl]-1H-indol-5-ol] |  | 8 | 12 |
| CCCCN(C)CCOc1ccc(Cn2c(-c3ccc(O)cc3)c(C)c3cc(O)ccc32)cc1 [compound 105, 1-{4-[2-(Butyl-methyl-amino)-ethoxy]-benzyl}-2-(4-hydroxy-phenyl)-3-methyl-1H-indol-5-ol] | 0.028 |  |  |
| Cc1c(-c2ccc(O)cc2)n(Cc2ccc(OCCN3CCCC(C)C3)cc2)c2ccc(O)cc12 (stereo not drawn) [compound 109, 2-(4-Hydroxy-phenyl)-3-methyl-1-{4-[2-(3-methyl-piperdin-1-yl)-ethoxy]-benzyl}-1H-indol-5-ol] | 0.17 |  |  |
| Cc1c(-c2ccc(F)cc2)n(Cc2ccc(OCCN3CCCCC3)cc2)c2ccc(O)cc12 [compound 116, 2-(4-Fluoro-phenyl)-3-methyl-1-[4-(2-piperidine-1-yl-ethoxy)-benzyl]-1H-indol-5-ol] |  | 1 | −1 |
| Cc1c(-c2ccc(F)cc2)n(Cc2ccc(OCCN3CCCCCC3)cc2)c2ccc(O)cc12 [compound 117, 1-[4-(2-Azepan-1-yl-ethoxy)-benzyl]-2-(4-fluoro-phenyl)-3-methyl-1H-indol-5-ol] |  | 1 | 0 |
| Cc1c(-c2ccc3c(c2)OCO3)n(Cc2ccc(OCCN3CCCCC3)cc2)c2ccc(O)cc12 [compound 119, 2-Benzo[1,3]dioxol-5-yl-3-methyl-1-[4-(2-piperidin-1-yl-ethoxy)-benzyl]-1H-indol-5-ol] |  | −1 | −1 |
| Cc1c(-c2ccc(C(F)(F)F)cc2)n(Cc2ccc(OCCN3CCCCC3)cc2)c2ccc(O)cc12 [compound 123, 3-Methyl-1-[4-(2-piperidin-1-yl-ethoxy)-benzyl]-2-(4-trifluoromethyl-phenyl)-1H-indol-5-ol] | 0.17 |  |  |
| COc1ccc(-c2c(C)c3cc(O)ccc3n2Cc2ccc(OCCN3CCCCC3)cc2)c(OC)c1 [compound 126, 2-(2,4-Dimethoxy-phenyl)-3-methyl-1-[4-(2-piperidin-1-yl-ethoxy)-benzyl]-1H-indol-5-ol] |  | 0 | −1 |
| Cc1c(-c2cccc(O)c2)n(Cc2ccc(OCCN3CCCCC3)cc2)c2ccc(O)cc12 [compound 127, 2-(3-Hydroxy-phenyl)-3-methyl-1-[4-(2-piperidin-1-yl-ethoxy)-benzyl]-1H-indol-5-ol] | 0.019 |  |  |
| Cc1c(-c2ccc(O)c(F)c2)n(Cc2ccc(OCCN3CCCCC3)cc2)c2ccc(O)cc12 [compound 129, 2-(3-Fluoro-4-hydroxy-phenyl)-3-methyl-1-[4-(2-piperidin-1-yl-ethoxy)-benzyl]-1H-indol-5-ol] | 0.0055 |  |  |
| Cc1c(-c2ccc(O)c(F)c2)n(Cc2ccc(OCCN3CCCCCC3)cc2)c2ccc(O)cc12 [compound 130, 2-(3-Fluoro-4-hydroxy-phenyl)-3-methyl-1-[4-(azepan-1-yl-ethoxy)-benzyl]-1H-indol-5-ol] | 0.013 |  |  |
| COc1cccc(-c2c(C)c3cc(O)ccc3n2Cc2ccc(OCCN3CCCCC3)cc2)c1 [compound 131, 2-(3-Methoxy-phenyl)-3-methyl-1-[4-(2-piperidin-1-yl-ethoxy)-benzyl]-1H-indole-5-ol] | 0.12 |  |  |
| Oc1ccc(-c2c(Cl)c3cc(O)ccc3n2Cc2ccc(OCCN3CCCC3)cc2)cc1 [compound 133, 3-Chloro-2-(4-hydroxy-phenyl)-1-[4-(2-pyrrolidin-1-yl-ethoxy)-benzyl]-1H-indol-5-ol] | 0.004 |  |  |
